26 compounds from patent publication US20250177383A1, “DI-CYCLOPROPYL BASED IL-17A MODULATORS AND USES THEREOF” (DICE ALPHA, INC., priority 2022, published 2025) can be followed below.

Assay [1] addresses T1, IL-17A/A (Homo sapiens, UniProt Q16552).
T1 sequence (Q16552 24-155): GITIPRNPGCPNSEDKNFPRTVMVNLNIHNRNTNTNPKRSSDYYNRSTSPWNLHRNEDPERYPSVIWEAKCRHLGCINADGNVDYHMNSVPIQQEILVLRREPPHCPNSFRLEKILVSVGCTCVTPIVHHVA
Description: IL-17A/A HEK-Blue Cell Assay. The following applies: HEK-Blue IL-17 reporter cells, IL-17A/A stimulation, 20 hours, SEAP readout; read-out: IL17 AA HEK-5 pIC50 (converted). In kind it is cell-based. The essentials:
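Cells co-expressing IL-17RA, IL-17RC and Act1 received titrated compound, top final 10 uM in 0.1% DMSO, immediately before IL-17A/A stimulation.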

Assay [2] deals with T2, IL-17A/F (Homo sapiens, UniProt Q16552+Q96PD4).
T2 sequence (Q16552 24-155): T1 sequence (Q16552 24-155)
T2 sequence (Q96PD4 31-163): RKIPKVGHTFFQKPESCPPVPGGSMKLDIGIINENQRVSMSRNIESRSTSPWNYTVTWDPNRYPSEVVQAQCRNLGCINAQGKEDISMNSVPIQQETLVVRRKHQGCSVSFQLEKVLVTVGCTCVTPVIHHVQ
Put plainly: IL-17A/F HEK-Blue Cell Assay. It is filed as cell-based. The following applies: HEK-Blue IL-17 reporter cells, IL-17A/F stimulation, 20 hours, SEAP readout; for IC50: read-out: IL17AF HEK Blue pIC50 (converted).

SMILES strings stand for the structures. Where only a bound is given, the exact number is not on record here.

On to `CCn1nccc1C(=O)N[C@H](C(=O)Nc1ccc([C@H](C)[C@@H](NC(=O)C(C)Cc2cc(O)no2)C(=O)N2CCN(C)[C@H](C)C2)cc1F)C(C1CC1)C1CC1` (single isomer, unassigned) [Compound 344], for which the results for the IC50 in assay [1] and in assay [2] were < 0.01 µM and 0.01 to 0.1 µM, respectively.

With `CCC(=O)NC(C(=O)N1CCN(C)CC1)C(c1ccc(NC(=O)[C@@H](NC(=O)c2ccnn2CC)C(C2CC2)C2CC2)c(F)c1)C(F)(F)F` (single isomer, unassigned) [Compound 350], the IC50 in assay [1] and in assay [2] was 0.1 to 10 µM in each case.

For `CCC(=O)N[C@@H](C(=O)N1CCNC(CF)C1)[C@@H](C)c1ccc(NC(=O)[C@@H](NC(=O)c2nonc2CC)C(C2CC2)C2CC2)c(F)c1` (single isomer, unassigned) [Compound 304], the figures for the IC50 in assay [1] and in assay [2] were < 0.01 µM and 0.1 to 10 µM, respectively.

As to `CCn1nccc1C(=O)N[C@H](C(=O)Nc1ccc([C@H](C)[C@@H](NC(=O)COC)C(=O)N2C[C@@H](C)N(C)C[C@H]2C)cc1F)C(C1CC1)C1CC1` [Compound 286], the IC50 was < 0.01 µM in assay [1] and 0.01 to 0.1 µM in assay [2].

In the case of `C[C@@H]1CN(C(=O)[C@H](NC(=O)N(C)C2CC2)[C@@H](C)c2ccc(NC(=O)[C@@H](NC(=O)C3(F)CC3)C(C3CC3)C3CC3)c(F)c2)CCN1C` [Compound 271], the IC50 in assay [1] was < 0.01 µM; in assay [2], 0.1 to 10 µM.

Regarding `CCOC(C)C(=O)N[C@@H](C(=O)N1CCN(C)CC1)[C@@H](C)c1ccc(NC(=O)[C@@H](NC(=O)c2ccnn2CC)C(C2CC2)C2CC2)c(F)c1` (single isomer, unassigned) [Compound 329], the IC50 was 0.01 to 0.1 µM in assay [1] and 0.1 to 10 µM in assay [2].

`CCC(=O)N[C@@H](C(=O)N1CCN(C)CC1)[C@@H](C)c1ccc(NC(=O)[C@@H](NC(=O)c2ccnn2CCF)C(C2CC2)C2CC2)c(F)c1` [Compound 216]: the IC50 in assay [1] and in assay [2] was 0.01 to 0.1 µM in each case.

With `CCn1nccc1C(=O)N[C@H](C(=O)Nc1ccc([C@H](C)[C@@H](NC(=O)C(C)C2CC2)C(=O)N2CCN(C)[C@H](C)C2)cc1F)C(C1CC1)C1CC1` (single isomer, unassigned) [Compound 309], the IC50 in assay [1] and in assay [2] was < 0.01 µM in each case.

As for `CCOC(C)C(=O)N[C@@H](C(=O)N1CCN(C)[C@H](C)C1)[C@@H](C)c1ccc(NC(=O)[C@@H](NC(=O)c2ccnn2CC)C(C2CC2)C2CC2)c(F)c1` (single isomer, unassigned) [Compound 323], the IC50 is < 0.01 µM in assay [1] and 0.01 to 0.1 µM in assay [2].

Consider `CO[C@@H](C)C(=O)N[C@@H](C(=O)N1C[C@@H](C)N(C)C[C@H]1C)[C@@H](C)c1ccc(NC(=O)[C@@H](NC(=O)C2(F)CC2)C(C2CC2)C2CC2)c(F)c1` [Compound 290], for which the IC50 in assay [1] was < 0.01 µM; in assay [2], 0.1 to 10 µM.

Turning to `CCOC(C)C(=O)N[C@@H](C(=O)N1CCN(C)[C@H](C)C1)[C@@H](C)c1ccc(NC(=O)[C@@H](NC(=O)C2(F)CC2)C(C2CC2)C2CC2)c(F)c1` (single isomer, unassigned) [Compound 322], in assay [1], the IC50 was < 0.01 µM. Moreover, the “IL17AF HEK Blue pIC50” value in assay [2] is “C (7>C≥5)”.

Turning to `CCC(=O)NC(C(=O)N1CCN(C)CC1)C(c1ccc(NC(=O)[C@@H](NC(=O)c2ccnn2CC)C(C2CC2)C2CC2)c(F)c1)C(F)(F)F` (single isomer, unassigned) [Compound 356], in assay [1], the IC50 is 0.01 to 0.1 µM. Further, the “IL17AF HEK Blue pIC50” value in assay [2] is “C (7>C≥5)”.

For the compound `CO[C@@H](C)C(=O)N[C@@H](C(=O)N1CCN(C)CC1)[C@@H](C)c1ccc(NC(=O)[C@@H](NC(=O)c2nonc2C)C(C2CC2)C2CC2)c(F)c1` [Compound 347], the values for the IC50 in assay [1] and in assay [2] were < 0.01 µM and 0.1 to 10 µM, respectively.

Regarding `CCn1nccc1C(=O)N[C@H](C(=O)Nc1ccc([C@H](C)[C@@H](NC(=O)C(C)C(F)(F)F)C(=O)N2CCN(C)CC2)cc1F)C(C1CC1)C1CC1` (single isomer, unassigned) [Compound 333], the results for the IC50 in assay [1] and in assay [2] were 0.01 to 0.1 µM and 0.1 to 10 µM, respectively.

Regarding `CO[C@@H](C)C(=O)N[C@@H](C(=O)N1CCN(C)C[C@@H]1C)[C@@H](C)c1ccc(NC(=O)[C@@H](NC(=O)C2(F)CC2)C(C2CC2)C2CC2)c(F)c1` [Compound 285], the IC50 in assay [1] is 0.01 to 0.1 µM; in assay [2], 0.1 to 10 µM.

Consider `CCn1nccc1C(=O)N[C@H](C(=O)Nc1ccc(C(C(NC(=O)[C@H](C)OC)C(=O)N2CCN(C)[C@H](C)C2)C(F)(F)F)cc1F)C(C1CC1)C1CC1` (single isomer, unassigned) [Compound 355], for which the IC50 in assay [1] and in assay [2] was 0.1 to 10 µM throughout.

For `CCn1nccc1C(=O)N[C@H](C(=O)Nc1ccc([C@H](C)[C@@H](NC(=O)C(C)OCCOC)C(=O)N2CCN(C)CC2)cc1F)C(C1CC1)C1CC1` (single isomer, unassigned) [Compound 314], the IC50 in assay [1] and in assay [2] was 0.1 to 10 µM throughout.

Regarding `COC(=O)N1CC[C@H]1C(=O)N[C@@H](C(=O)N1CCN(C)CC1)[C@@H](C)c1ccc(NC(=O)[C@@H](NC(=O)C2(F)CC2)C(C2CC2)C2CC2)c(F)c1` [Compound 277], the IC50 in assay [1] was 0.01 to 0.1 µM; in assay [2], 0.1 to 10 µM.

Regarding `COCC(=O)N[C@@H](C(=O)N1C[C@@H](C)N(C)C[C@H]1C)[C@@H](C)c1ccc(NC(=O)[C@@H](NC(=O)C2(F)CC2)C(C2CC2)C2CC2)c(F)c1` [Compound 289], the figures for the IC50 in assay [1] and in assay [2] were < 0.01 µM and 0.1 to 10 µM, respectively.

As to `CCn1nccc1C(=O)N[C@H](C(=O)Nc1ccc([C@H](C)[C@@H](NC(=O)C(C)Cc2cc(O)no2)C(=O)N2CCN(C)[C@H](C)C2)cc1F)C(C1CC1)C1CC1` (single isomer, unassigned) [Compound 343], the IC50 was 0.01 to 0.1 µM in assay [1] and 0.1 to 10 µM in assay [2].

`CCC(OC)C(=O)N[C@@H](C(=O)N1CCN(C)CC1)[C@@H](C)c1ccc(NC(=O)[C@@H](NC(=O)c2ccnn2CC)C(C2CC2)C2CC2)c(F)c1` (single isomer, unassigned) [Compound 339]: the IC50 in assay [1] was 0.01 to 0.1 µM; in assay [2], 0.1 to 10 µM.

Consider `CCC(=O)N[C@@H](C(=O)N1CCN(C)CC1)[C@@H](C)c1ccc(NC(=O)[C@@H](NC(=O)c2ccnn2CC)C(C2CC2)C2CC2)c(F)c1` [Compound 200], for which the IC50 in assay [1] and in assay [2] was 0.01 to 0.1 µM throughout.

As to `COC(=O)N1CCC[C@H]1C(=O)N[C@@H](C(=O)N1CCN(C)CC1)[C@@H](C)c1ccc(NC(=O)[C@@H](NC(=O)C2(F)CC2)C(C2CC2)C2CC2)c(F)c1` [Compound 280], the values for the IC50 in assay [1] and in assay [2] were 0.01 to 0.1 µM and 0.1 to 10 µM, respectively.

In the case of `CCOC(C)C(=O)N[C@@H](C(=O)N1CCN(C)[C@H](C)C1)[C@@H](C)c1ccc(NC(=O)[C@@H](NC(=O)C2(F)CC2)C(C2CC2)C2CC2)c(F)c1` (single isomer, unassigned) [Compound 321], the values for the IC50 in assay [1] and in assay [2] were 0.01 to 0.1 µM and 0.1 to 10 µM, respectively.

Consider `CCn1nccc1C(=O)N[C@H](C(=O)Nc1ccc([C@H](C)[C@@H](NC(=O)[C@H](C)OC)C(=O)N2CCN(C)CC2)cc1F)C(C1CC1)C1CC1` [Compound 222], for which the IC50 was < 0.01 µM in assay [1] and 0.01 to 0.1 µM in assay [2].

For the compound `CCOC(=O)N[C@@H](CF)C(=O)N[C@@H](C(=O)N1CCN(C)CC1)[C@@H](C)c1ccc(NC(=O)[C@@H](NC(=O)C2(F)CC2)C(C2CC2)C2CC2)c(F)c1` [Compound 359], the figures for the IC50 in assay [1] and in assay [2] were < 0.01 µM and 0.1 to 10 µM, respectively.
